The nature of the data set: flash point. The following applies: pure glycol component. The data set is classed as physicochemical.

The source of these data is patent US20140034581A1, “LIQUID PRODUCTS AND METHOD FOR EMULSIFYING OIL, AND USE THEREOF IN THE TREATMENT OF OIL CONTAMINATIONS” (MAN OIL GROUP AG, priority 2011, published 2014).

Some results are limits rather than exact numbers.

On to `CC(O)CO` (stereo not shown) [1,2-Propandiol], for which the flash point was above 102 °C.
